Measurements: patent publication US20250339399A1, “SUPRAMOLECULAR SELF-ASSEMBLY SYSTEM” (Beijing Creatron Institute of Pharmaceutical Research Co., …, priority 2022, published 2025)
Each block holds one compound with its values, some of them ahead of it.

What was measured:
[1] = Binary supramolecular self-assembly systems of polymer and target: guest concentration over incubation time (Comparative Example 2); type: physicochemical; settings: for Concentration of guest molecule in solution / Times that of the initial medium: 6 h
Description: Experiments were conducted according to the steps in Comparative Example 1, and quantitative analysis was carried out using the analytical method for each target to investigate the regulation ability […] stacking.

[2] = Guest molecule concentration after incubation in initial medium without polymer (Comparative Example 1); type: physicochemical; settings: 37° C.
How it was run: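 Dissolved guest content measured by HPLC of centrifuged supernatants (37° C., 13000 rpm, 5 min) sampled at 0.5 h, 3 h and 6 h. Incubation was polymer-free at 37° C.±0.5° C. in buffers of pH 2.0-7.4; nominal loading was set by maximum clinical dose.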

[3] = cited from earlier work
[4] = Binary (carrier), ternary and quaternary supramolecular self-assembly systems of polymer, carrier building block and target: guest concentration over incubation time (Examples 1-56); type: physicochemical
Description: pH 2.0 hydrochloric acid, pH 4.5 acetate, and pH 6.5, pH 6.8, or pH 7.4 phosphate buffer solutions were prepared. The selection of each initial medium followed the principle that the solubility in the initial medium of the selected targets (or active ingredients) should low enough, but should meet the detection sensitivity and accuracy requirements of the corresponding analytical methods. Each buffer as initial media was placed in a 50 ml test tube with a stopper, shaken in a constant temperature air shaker at 37° C.±0.5° C., with an amplitude of 200 rpm, and incubated for 1 hour. […] Samples were taken at 0.5 h, 3 h and 6 h after incubation, centrifuged at 37° C., 13000 rpm for 5 minutes, and the supernatant was diluted at least 10 times with the mobile phase under the target analyte analytical method, filtered, the initial filtrate was discarded, and the continued filtrate was used as the test solution for injection analysis. The corresponding HPLC method under each target object item in Table 8 was used to determine the content of each target substance. When the solubility of the target in the initial medium is below the quantitative limit of the analytical method, a small amount of surfactant, such as sodium dodecyl sulfate (SDS), Tween20, or Tween80, can be added appropriately.
Experiments were conducted according to the steps in Comparative Example 1, and quantitative analysis was carried out using the analytical method for each target to investigate the regulation ability of each binary supramolecular self-assembly system built from 0.5% polymer and target on guest molecules stacking.
Ternary supramolecular self-assembly systems based on different polymers, carrier building blocks, and targets were built according to the experimental scheme in Table 12, to investigate the influence of synergistic regulation of the carrier building blocks and the polymers on the stacking of target molecules, as well as the stability of the supramolecular self-assembly systems jointly built by them over incubation time. The initial medium, quantitative analysis method, pre-treatment method, and initial theoretical concentration of the target, corresponding to each target molecule in the experiment, were consistent with those in Comparative Examples 1 and 2. After a target was added to the system, the target was uniformly dispersed by ultrasonication at 37° C. for half an hour and then shaken in a 37° C. constant temperature air shaker, and samples were collected after different incubation time, i.e. 0.5 h, 1 h, 2 h, 3 h, 4 h, and 6 h.

[5] = binary, no polymer: 0.5% 301, 6 h
[6] = binary: 310, % not stated at the place, 6 h
[7] = binary: 312, % not stated at the place, 6 h
[8] = binary system with 0.5% polymer 101, incubation 0.5 h
[9] = binary system with 0.5% polymer 101, incubation 3 h
[10] = binary system with 0.5% polymer 101, incubation 6 h
[11] = binary system with 0.5% polymer 102, incubation 0.5 h
[12] = binary system with 0.5% polymer 102, incubation 3 h
[13] = binary system with 0.5% polymer 102, incubation 6 h
[14] = binary system with 0.5% polymer 103, incubation 0.5 h
[15] = binary system with 0.5% polymer 103, incubation 3 h
[16] = binary system with 0.5% polymer 103, incubation 6 h
[17] = binary system with 0.5% polymer 106, incubation 0.5 h
[18] = binary system with 0.5% polymer 106, incubation 3 h
[19] = binary system with 0.5% polymer 106, incubation 6 h
[20] = binary system with 0.5% polymer 107, incubation 0.5 h
[21] = binary system with 0.5% polymer 107, incubation 3 h
[22] = binary system with 0.5% polymer 107, incubation 6 h
[23] = binary system with 0.5% polymer 110, incubation 0.5 h
[24] = binary system with 0.5% polymer 110, incubation 3 h
[25] = binary system with 0.5% polymer 110, incubation 6 h

Concentration of guest molecule in solution ([1]; binary: 0.25% 102H): 127.7 µg/mL
Times that of the initial medium ([1]; binary: 0.25% 102H): 2.7 times
Concentration of guest molecule in solution ([1]; binary: 0.25% 103E5): 114.6 µg/mL
Times that of the initial medium ([1]; binary: 0.25% 103E5): 2.4 times
Concentration of guest molecule in solution ([1]; binary: 0.5% 102H): 327.6 µg/mL
Times that of the initial medium ([1]; binary: 0.5% 102H): 6.7 times
Concentration of guest molecule measured after different incubated time ([2]; 0.5 h, pH 6.8 phosphate buffer): 49.8 µg/mL
Concentration of guest molecule measured after different incubated time ([2]; 3 h, pH 6.8 phosphate buffer): 48.7 µg/mL
Concentration of guest molecule measured after different incubated time ([2]; 6 h, pH 6.8 phosphate buffer): 48.0 µg/mL
Concentration of guest molecule in solution [4, 5]: 366.6 µg/mL
Times that of the initial medium [4, 5]: 7.5 times
Concentration of guest molecule in solution [4, 6]: 300.0 µg/mL
Times that of the initial medium [4, 6]: 6.3 times
Concentration of guest molecule in solution [4, 7]: 397.9 µg/mL
Times that of the initial medium [4, 7]: 8.2 times
Concentration of guest molecule in solution ([4]; ternary: 102H (0.25% where stated) + 301, carrier % not stated, 6 h): 334.8 µg/mL
Concentration of guest molecule in solution ([4]; ternary: 102H (0.25% where stated) + 302, carrier % not stated, 6 h): 312.6 µg/mL
Encapsulation rate for the guest molecule ([4]; ternary: 102H + 313 or 318): ~100%
SMILES: COc1ccc(-n2nc(C(N)=O)c3c2C(=O)N(c2ccc(N4CCCCC4=O)cc2)CC3)cc1 [Apixaban]
LogP [3]: LogP 1.83

Concentration of the target in the solution measured after different incubation time [1, 8]: 555.9 µg/mL
Concentration of the target in the solution measured after different incubation time [1, 9]: 229.5 µg/mL
Concentration of the target in the solution measured after different incubation time [1, 10]: 230.7 µg/mL
Concentration of the target in the solution measured after different incubation time [1, 11]: 258.9 µg/mL
Concentration of the target in the solution measured after different incubation time [1, 12]: 245.3 µg/mL
Concentration of the target in the solution measured after different incubation time [1, 13]: 244.5 µg/mL
Concentration of the target in the solution measured after different incubation time [1, 14]: 234.7 µg/mL
Concentration of the target in the solution measured after different incubation time [1, 15]: 230.8 µg/mL
Concentration of the target in the solution measured after different incubation time [1, 16]: 233.8 µg/mL
Concentration of the target in the solution measured after different incubation time [1, 17]: 240.7 µg/mL
Concentration of the target in the solution measured after different incubation time [1, 18]: 244.6 µg/mL
Concentration of the target in the solution measured after different incubation time [1, 19]: 241.9 µg/mL
Concentration of the target in the solution measured after different incubation time [1, 20]: 242.4 µg/mL
Concentration of the target in the solution measured after different incubation time [1, 21]: 240.0 µg/mL
Concentration of the target in the solution measured after different incubation time [1, 22]: 243.7 µg/mL
Concentration of the target in the solution measured after different incubation time [1, 23]: 240.5 µg/mL
Concentration of the target in the solution measured after different incubation time [1, 24]: 253.9 µg/mL
Concentration of the target in the solution measured after different incubation time [1, 25]: 252.1 µg/mL
Concentration of guest molecule measured after different incubated time ([2]; 0.5 h, pH 6.5 phosphate buffer): 252.2 µg/mL
Concentration of guest molecule measured after different incubated time ([2]; 3 h, pH 6.5 phosphate buffer): 246.4 µg/mL
Concentration of guest molecule measured after different incubated time ([2]; 6 h, pH 6.5 phosphate buffer): 246.0 µg/mL
Concentration of guest molecule in solution ([4]; ternary: 0.25% 102M + 0.25% 313, 2 h): 480.3 µg/mL
Concentration of guest molecule in solution ([4]; ternary: 0.25% 102M + 0.25% 313, 6 h): 650.6 µg/mL
Concentration of guest molecule in solution ([4]; ternary: 0.25% 102M + 0.25% 313, 10 h): 1026.3 µg/mL
Concentration of guest molecule in solution ([4]; ternary: 0.25% 102M + 0.25% 314, 2 h): 1103.4 µg/mL
Concentration of guest molecule in solution ([4]; ternary: 0.25% 102M + 0.25% 314, 6 h): 406.8 µg/mL
Concentration of guest molecule in solution ([4]; ternary: 0.25% 102M + 0.25% 318, 2 h): 521.5 µg/mL
Concentration of guest molecule in solution ([4]; ternary: 0.25% 102M + 0.25% 318, 6 h): 754.1 µg/mL
Concentration of guest molecule in solution ([4]; ternary: 0.25% 102M + 0.25% 318, 10 h): 1310.2 µg/mL
Concentration of guest molecule in solution ([4]; ternary: 0.25% 102M + 0.25% 319, 2 h): 413.5 µg/mL
Concentration of guest molecule in solution ([4]; ternary: 0.25% 102M + 0.25% 319, 6 h): 643.7 µg/mL
Concentration of guest molecule in solution ([4]; ternary: 0.25% 102M + 0.25% 319, 10 h): 1125.6 µg/mL
SMILES: CCCCC1OC(=O)c2ccccc21 (stereo not shown) [Butylphthalide]
LogD7.4 or Log P [3]: 3.36

Concentration of the target in the solution measured after different incubation time [1, 8]: 272.9 µg/mL
Concentration of the target in the solution measured after different incubation time [1, 9]: 221.8 µg/mL
Concentration of the target in the solution measured after different incubation time [1, 10]: 193.8 µg/mL
Concentration of the target in the solution measured after different incubation time [1, 11]: 90.1 µg/mL
Concentration of the target in the solution measured after different incubation time [1, 12]: 75.5 µg/mL
Concentration of the target in the solution measured after different incubation time [1, 13]: 72.2 µg/mL
Concentration of the target in the solution measured after different incubation time [1, 14]: 102.4 µg/mL
Concentration of the target in the solution measured after different incubation time [1, 15]: 88.4 µg/mL
Concentration of the target in the solution measured after different incubation time [1, 16]: 84.4 µg/mL
Concentration of the target in the solution measured after different incubation time [1, 17]: 150.2 µg/mL
Concentration of the target in the solution measured after different incubation time [1, 18]: 131.1 µg/mL
Concentration of the target in the solution measured after different incubation time [1, 19]: 128.2 µg/mL
Concentration of the target in the solution measured after different incubation time [1, 20]: 236.9 µg/mL
Concentration of the target in the solution measured after different incubation time [1, 21]: 151.4 µg/mL
Concentration of the target in the solution measured after different incubation time [1, 22]: 137.8 µg/mL
Concentration of the target in the solution measured after different incubation time [1, 23]: 53.8 µg/mL
Concentration of the target in the solution measured after different incubation time [1, 24]: 45.8 µg/mL
Concentration of the target in the solution measured after different incubation time [1, 25]: 43.0 µg/mL
Times that of the initial medium ([1]; binary: 0.5% 102H): 1.7 times
Times that of the initial medium ([1]; binary: 0.5% 107): 1.9 times
Concentration of guest molecule measured after different incubated time ([2]; 0.5 h, 0.2% SDS in pH 6.8 phosphate buffer): 62.3 µg/mL
Concentration of guest molecule measured after different incubated time ([2]; 3 h, 0.2% SDS in pH 6.8 phosphate buffer): 57.1 µg/mL
Concentration of guest molecule measured after different incubated time ([2]; 6 h, 0.2% SDS in pH 6.8 phosphate buffer): 59.0 µg/mL
Concentration of guest molecule in solution ([4]; binary: 0.25% 312, 6 h): 135 µg/mL
Concentration of guest molecule in solution ([4]; binary: 0.25% 318, 6 h): 175 µg/mL
Concentration of guest molecule in solution ([4]; quaternary: 0.25% 202 (102H+107) + 0.25% 312, 6 h): 371 µg/mL
Concentration of guest molecule in solution ([4]; quaternary: 0.25% 202 (102H+107) + 0.25% 313, 6 h): 533 µg/mL
Concentration of guest molecule in solution ([4]; quaternary: 0.25% 202 (102H+107) + 0.25% 318, 6 h): 451 µg/mL
Concentration of guest molecule in solution ([4]; quaternary: 0.25% 202 (102H+107) + 0.25% 321, 6 h): 623 µg/mL
SMILES: CNC(=O)c1ccc(N2C(=S)N(c3ccc(C#N)c(C(F)(F)F)c3)C(=O)C2(C)C)cc1F [Enzalutamide]
LogD7.4 or Log P [3]: 4.16
